Experimental data as given in patent US20230159509A1 (Amathus Therapeutics, Inc., priority 2020, published 2023).

Biological target: T1, TRAP1 enzyme (Homo sapiens, UniProt Q12931)
T1 construct: 150 nM Trap1 enzyme was incubated with various concentrations of the test compound
T1 sequence (Q12931 60-704): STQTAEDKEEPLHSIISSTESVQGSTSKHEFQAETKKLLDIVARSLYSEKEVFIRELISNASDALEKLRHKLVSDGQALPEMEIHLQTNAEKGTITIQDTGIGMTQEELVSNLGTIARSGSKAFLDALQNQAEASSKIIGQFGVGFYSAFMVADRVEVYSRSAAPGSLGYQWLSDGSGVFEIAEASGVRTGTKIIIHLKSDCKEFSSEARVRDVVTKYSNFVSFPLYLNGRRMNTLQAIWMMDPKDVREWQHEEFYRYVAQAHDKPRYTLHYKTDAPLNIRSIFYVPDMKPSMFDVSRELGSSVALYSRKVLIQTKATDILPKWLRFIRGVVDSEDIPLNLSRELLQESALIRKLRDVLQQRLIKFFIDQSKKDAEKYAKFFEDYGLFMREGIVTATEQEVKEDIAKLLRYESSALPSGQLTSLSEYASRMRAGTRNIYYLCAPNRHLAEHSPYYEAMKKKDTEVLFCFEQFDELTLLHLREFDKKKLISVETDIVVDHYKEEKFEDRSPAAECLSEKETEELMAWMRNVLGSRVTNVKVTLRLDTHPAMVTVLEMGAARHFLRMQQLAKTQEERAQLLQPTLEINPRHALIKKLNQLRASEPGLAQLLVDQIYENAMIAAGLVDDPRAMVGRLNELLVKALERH
Test: ADP Glo assay of TRAP1 ATPase activity
Format: biochemical
Procedure, shortened: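 ADP-Glo luminescence quantifying ADP from 150 nM TRAP1 preincubated 30 min at 37° C with compound (0.79–100 μM), then 20 μM ATP for 60 min at 37° C. Buffer: 25 mM Pipes pH 7.5, 40 mM KCl, 0.05 mM MgCl2, EGTA, BSA, detergents. ADP from ATP/ADP standard curve; Emax and EC50 from sigmoidal fit.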

EC50 (concentration for half maximal activation, read-out: ADP GLO DRC: GeoMean EC50): < 10 µM
Emax (maximal percent activation, read-out: ADP GLO DRC: Mean Emax): 200 to 300%
Structure (SMILES): COc1ncc(NC(=O)c2csc(-c3ccccc3)n2)cc1S(=O)(=O)Nc1c(C)cccc1C [compound 1178]
